pIC50: −log10 of the molar value.
Molecular target: T1, Renin (Homo sapiens, UniProt P00797)
T1 sequence (P00797 whole entry): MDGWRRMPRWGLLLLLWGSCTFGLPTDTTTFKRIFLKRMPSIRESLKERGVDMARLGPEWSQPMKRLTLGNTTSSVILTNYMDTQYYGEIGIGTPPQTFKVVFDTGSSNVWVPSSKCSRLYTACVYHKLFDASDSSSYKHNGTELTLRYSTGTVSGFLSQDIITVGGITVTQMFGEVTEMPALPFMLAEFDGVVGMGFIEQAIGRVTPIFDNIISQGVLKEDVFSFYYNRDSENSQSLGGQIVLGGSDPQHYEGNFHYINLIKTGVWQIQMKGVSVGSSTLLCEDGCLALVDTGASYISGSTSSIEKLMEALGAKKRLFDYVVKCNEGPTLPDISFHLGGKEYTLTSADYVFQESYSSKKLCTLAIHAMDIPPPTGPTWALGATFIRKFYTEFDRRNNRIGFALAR
Assay: Concentration required to inhibit renin activity by 50%

SMILES	pIC50
COCCCN1C(=O)CCc2ccc(OC[C@@H]3CNCC(=O)N3c3ccc(OCCCOCc4ccccc4OC)cc3)cc21	7.77
COc1ccccc1COCCCOc1ccc(N2C(=O)CNC[C@H]2COc2ccc3c(c2)N(CCCO)CCC3)cc1	7.46
COc1ccccc1COCCCOc1ccc(N2C(=O)CNC[C@@H]2COc2ccc3c(c2)NCCC3)cc1	6.92
COc1ccccc1COCCCOc1ccc(N2C(=O)CNC[C@H]2COc2ccc3c(c2)NCCC3)cc1	7.64

Continued, values first:

pIC50	SMILES
8.15	COCCCN1C(=O)CCc2ccc(OC[C@H]3CNCC(=O)N3c3ccc(OCCCOCc4ccccc4OC)cc3)cc21
7.48	COc1ccccc1COCCCOc1ccc(N2C(=O)CNC[C@H]2COc2ccc3c(c2)N(CCO)CCC3)cc1
6.07	COc1ccccc1COCCCOc1ccc(N2C(=O)CNC[C@H]2COc2ccc3cccnc3c2)cc1

Source: ChEMBL document CHEMBL1144390, “Equipotent activity in both enantiomers of a series of ketopiperazine-based renin inhibitors” (Bioorg Med Chem Lett, 2005)
